Source: patent publication US9446087B2, “Anti-resorptive and bone building dietary supplements and methods of use” (priority 2006, dated 2016)
Marks after values point to notes of the source that are not given here. One block for each molecule: values may come before it.

Columns and labels:
[1] = test system: RANK-L; assay: RANK-L gene expression (IL-1b stimulated MG63 cells, qPCR); type: cell-based, human; conditions: 3 μg/ml, stimulus alone
Protocol: Punicalagin test samples are extracted from pomegranates, including from pomegranate peels, skins, fleshy fruit, and seeds using 100% DMSO at 100 mg/ml. Particulate matter in the extraction is not removed. The punicalagin test samples are diluted in MEM without phenol red (estrogenic) and 0.1% FBS to lower background signaling to ten times the final concentrations. Final DMSO concentrations are kept below 0.2% and are kept constant during treatments. DMSO solvent control is used in the untreated group.
MG63 cells (ATCC #CRL-1472), a human-derived osteosarcoma cell line, are plated at 200,000 cells per well in a 12 well plate with phenol red free MEM at 10% FBS. The next day the media is changed to phenol red free MEM at 0.1% FBS. […]
[…] The treated cells the stimulus, IL-1b, are then allowed to incubate for 16 hours at 37° C.
After 16 hours the cells are lysed and the RNA is extracted from the cells with the RNasy purification kit (Qiagen). RNA is reverse transcribed to cDNA and quantified by qPCR using 2-step qRT-PCR reagents (Invitrogen), and 4 μL of purified RNA. Annealing temperature is 57° C. in the Stratagene Mx4000 with 1 μL of RANK-L gene specific primers in a 50 μL reaction (10 μM initial concentration; HLUX3013920, Invitrogen Inc.).
RANK-L and GAPDH gene expression Ct data are obtained. RNA is quantified with adjustments for GAPDH expression. […]

[2] = test system: type IV collagenase protein (matrix metalloproteinase-9/MMP9); assay: MMP9 protein expression in IL-1B stimulated keratinocyte/fibroblast co-culture; type: cell-based; conditions: 10 ng/ml, stimulus alone; untreated 1.0
Protocol: Keratinocytes and fibroblasts were co-cultured in DMEM containing 0.5% BSA. Co-cultures were exposed to various concentrations of punicalagins (ranging from 0.1%-10%) were extracted from pomegranates. Specifically, the ability of the pomegranate extracts to inhibit type IV collagenase protein (matrix metalloproteinase-9/MMP9) expression at concentrations of 1.0 μg/ml, 10 μg/ml, and 100 μg/ml were tested. Following exposure to the pomegranate extracts, the co-culture cells were stimulated with 10 ng/ml of IL-1B for 18 hours. Following stimulation with IL-1B for 18 hours, and MMP9 concentration was determined in the media as shown below in Table 14.

[3] = test system: calvaria (skull bones) from 4 day old pups; assay: Calvarial Assay to Measure Inhibition of Bone Resorption (45Ca release); type: cell-based, CD-1 mice; conditions: positive control
Protocol: In order to label cells of newborn mice in utero, pregnant CD-1 female mice (at timed day 15) were injected with ^45Ca (25 uCi/mouse). […] The bones were incubated at 37° C. in a 5% CO2 humidified incubator for a period of 24 hours following which they were transferred to wells containing 1 ml media with factors added (IL-1, PTH and or compounds.) The treated bones were incubated under the above conditions for a further 72 hours. […] The results were expressed as % ^45Ca release and can be further reported as T/C ratios. For some factors and compounds, modification of this procedure can be used. As most of the osteoclasts are formed in the calvaria following the preincubation period, the factors that affect osteoclast formation may have a greater effect during the preincubation period. Thus, for a number of the compounds, they were included in the preincubation media.

[4] = test system: ovariectomized (OVX) rat model; assay: In vivo ovariectomized (OVX) rat study - micro-CT measurement; conditions: OVX rats, 35 days, positive control 0.5 mg/day; vs placebo group
Protocol: Two different formulas were tested in an in vivo study involving female, intact rats, aged approximately 12-14 weeks, with approximate body weights between 200-250 grams. Formula 2 included varying dosages of pomegranate extract and grape seed extract and a fixed dosage of ipriflavone as reported in Table 18. Three dosages were tested for each formula. The study utilized 8 groups of rats, with 15 rats in each group and lasted approximately 35 days.
To introduce rapid bone resorption caused by estrogen withdrawal, the ovariectomized (OVX) rat model was used in this study. […] It was important to evaluate the effect of bone resorption caused by the ovariectomy procedure so a Sham control (n=6), a group of female rats without undergoing the ovariectomy procedure, was also included in the study.
This study employed a randomized placebo controlled dose response design. A total of 120 ovariectomized rats (n=15 per group) aged ˜12-14 weeks, with body weights of approximately 200-250 grams were randomly assigned to groups for 35 days. Animals were fed at 15 grams/day, which included either a placebo diet or one of the formulas listed above, for a period of 35 days from the beginning of the experiment. […]
The effectiveness of the formulas on antiresorption was assessed by outcome measurements that included DEXA scan (to determine bone mineral density), biomechanical measurement (to gather bone strength and functional information), micro-CT measurement (to assess virtual bone quality and functional information), and histomorphology measurement (to assess bone quality and functional information). […] These measurements were determined after 35 days of treatment. […]

[5] = test system: ovariectomized (OVX) rat model; assay: In vivo ovariectomized (OVX) rat study - histomorphology measurement; conditions: OVX rats, 35 days, positive control 0.5 mg/day; vs placebo group
Protocol: (§1) Two different formulas were tested in an in vivo study involving female, […] rats, aged approximately 12-14 weeks, with approximate body weights between 200-250 grams. Formula 2 included varying dosages of pomegranate extract and grape seed extract and a fixed dosage of ipriflavone as reported in Table 18. Three dosages were tested for each formula. The study utilized 8 groups of rats, with 15 rats in each group and lasted approximately 35 days.
Table 18 below indicates the formula given to each of the 8 test groups. […]
(§2) The effectiveness of the formulas on antiresorption was assessed by outcome measurements that included DEXA scan (to determine bone mineral density), biomechanical measurement (to gather bone strength and functional information), micro-CT measurement (to assess virtual bone quality and functional information), and histomorphology measurement (to assess bone quality and functional information). […] These measurements were determined after 35 days of treatment.
Histomorphology measurement was also used as a tool to determine the efficacy of formulas 1 and 2 where trabecular bone volume from each group was quantified. […]

[6] = test system: ovariectomized (OVX) rat model; assay: In vivo ovariectomized (OVX) rat study - biomechanical measurements; conditions: OVX rats, 35 days, positive control 0.5 mg/day; vs placebo group
Protocol: as §1
Table 18 below indicates the formula given to each of the 8 test groups. The dosages in Table 18 are based on the recommended human dosages and were converted to the appropriate corresponding rat dose using the FDA conversion formula: Human equivalent dose (HED, mg/kg)=rat dose in mg/kg×(rat weight in kg/human weight in kg)^0.33 HED=rat NOAEL×(W-rat/W-human)^(1-b), b=0.67. […]
as §2, with “treatment. […]” for “treatment.”

MMP9 protein expression (fold of untreated) [2]: 1.65
Molecule: IL1B: IL-1b stimulus (Calbiochem)
RANK-L Expression (fold increase) [1]: 3.3 ± 0 fold increase

Molecule: NCCCC(O)(P(=O)(O)O)P(=O)(O)O [Alendronate]
Inhibition of Bone Resorption/Release of Calcium By Combinations of Extracts, % Release ([3]; IL-1 + 0.1 μM): 28.50 ± 1.19 % Release | Inhibition of Bone Resorption/Release of Calcium By Combinations of Extracts, % Release ([3]; IL-1 + 1 μM): 17.00 ± 1.15^a % Release | Inhibition of Bone Resorption/Release of Calcium By Combinations of Extracts, % Release ([3]; IL-1 + 10 μM): 14.07 ± 1.05^a % Release | Inhibition of Bone Resorption/Release of Calcium By Combinations of Extracts, % Release ([3]; IL-1 + 100 μM): 12.00 ± 0.17^a % Release | % Bone Volume/ Total Volume [4]: 632%^a | Trabecular Number (N/6 mm^3) [4]: 313%^a | Trabecular Separation [4]: −88%^a | % Bone Volume [5]: 214.1%^a | Bone Stiffness [6]: 0.2% | Maximum Force Required to Fracture Bones [6]: −0.4%
